This test has as its target T1, MAP4K3 (Homo sapiens, UniProt Q8IVH8).
T1 sequence (Q8IVH8 1-894): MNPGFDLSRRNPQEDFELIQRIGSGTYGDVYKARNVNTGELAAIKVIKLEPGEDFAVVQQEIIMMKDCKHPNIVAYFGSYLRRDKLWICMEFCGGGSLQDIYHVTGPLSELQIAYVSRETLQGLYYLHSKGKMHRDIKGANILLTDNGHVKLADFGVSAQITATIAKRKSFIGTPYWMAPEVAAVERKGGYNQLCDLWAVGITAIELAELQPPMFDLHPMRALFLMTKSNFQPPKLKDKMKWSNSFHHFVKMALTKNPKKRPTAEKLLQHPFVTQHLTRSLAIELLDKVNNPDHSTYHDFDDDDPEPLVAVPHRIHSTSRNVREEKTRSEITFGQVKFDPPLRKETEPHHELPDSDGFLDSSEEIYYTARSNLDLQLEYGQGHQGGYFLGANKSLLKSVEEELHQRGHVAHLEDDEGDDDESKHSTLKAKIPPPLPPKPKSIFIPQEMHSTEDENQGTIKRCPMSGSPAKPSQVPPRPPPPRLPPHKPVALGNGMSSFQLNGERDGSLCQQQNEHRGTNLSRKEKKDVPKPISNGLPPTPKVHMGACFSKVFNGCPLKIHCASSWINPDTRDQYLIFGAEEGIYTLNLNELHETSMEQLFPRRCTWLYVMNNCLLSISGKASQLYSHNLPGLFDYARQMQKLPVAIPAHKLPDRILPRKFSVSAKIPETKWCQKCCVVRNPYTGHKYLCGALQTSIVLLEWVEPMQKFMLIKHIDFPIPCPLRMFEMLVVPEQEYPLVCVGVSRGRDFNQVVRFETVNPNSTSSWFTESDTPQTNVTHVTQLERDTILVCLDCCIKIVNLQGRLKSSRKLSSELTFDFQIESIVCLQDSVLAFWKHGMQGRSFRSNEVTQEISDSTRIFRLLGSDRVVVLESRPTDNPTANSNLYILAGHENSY
Kind of test: Kinase specificity assay (33P phosphoryl transfer, LCCA or AlphaScreen). To be noted: ATP close to KM; read-out: MAP4K3 inhibition, IC50. The test is classed as biochemical. The method, then:
Kinase activity and compound inhibition are investigated using one or more of the three assay formats described below. The ATP concentrations for each assay are selected to be close to the Michaelis-Menten constant (KM) for each individual kinase. Dose-response experiments are performed at 10 different inhibitor concentrations in a 384-well plate format. The data are fitted to the following four-parameter equation: Y=Min+(Max−Min)/(1+(X/IC50)^H) where Y is the observed signal, X is the inhibitor concentration, Min is the background signal in the absence of enzyme (0% enzyme activity), Max is the signal in the absence of inhibitor (100% enzyme activity), IC50 is the inhibitor concentration at 50% enzyme inhibition and H represents the empirical Hill's slope to measure the cooperativity. Typically H is close to unity. ^33P Phosphoryl Transfer Assay:
Greiner 384-well white, clear bottom, high binding plates are coated with 2 μg/well of protein or peptide substrate in a 50 μL volume overnight at ambient temperature. The coating buffer typically contains 40 μg/mL substrate, 22.5 mM Na2CO3, 27.5 mM NaHCO3, 150 mM NaCl and 3 mM NaN3. The coating solution is aspirated and the plates are washed once with 50 μL of assay buffer and padded dry. Subsequently compounds and enzymes are mixed with γ^33P-ATP (3.3 μCi/nmol) in a total volume of 20 uL in suitable assay buffers. The mixture is incubated at ambient temperature for 1.5-2.5 hrs and terminated by aspiration using a Molecular Devices EMBLA 96-head plate washer. The plates are subsequently washed 6-12 times with PBST or TBS buffer. Scintillation fluid (50 μl/well) is then added, the plates are sealed and activity assessed by liquid scintillation spectrometry using a Perkin Elmer MicroBeta TriLux.
In the LCCA assays, kinase activity is measured as the percent ATP consumed following the kinase reaction using luciferase-luciferin-coupled chemiluminescence. Greiner 384-well white, clear bottom, medium binding plates are used for LCCA. Briefly, the kinase reaction is initiated by mixing compounds, ATP and kinase in a 20 uL volume. The mixture is incubated at ambient temperature for 2-4 hrs. At the end of the kinase reaction, a 20 uL luciferase-luciferin mix is added and the chemiluminescent signal is read using a Wallac Victor^2 reader. The luciferase-luciferin mix consists of 50 mM HEPES, pH 7.8, 8.5 ug/mL oxalic acid (pH 7.8), 5 (or 50) mM DTT, 0.4% Triton X-100, 0.25 mg/mL coenzyme A, 63 uM AMP, 28 ug/mL luciferin and 40,000 units of light/mL luciferase. For the LCCA assays, total ATP consumption has been standardized to 25-45% and the IC50 values correlates well with those determined by radiometric assays.
AlphaScreen technology is a proximity assay which utilizes the increase in fluorescent signal when donor and acceptor beads are close in proximity. Biotinylated poly(Glu,Tyr) 4:1 is used as the kinase substrate, in conjunction with streptavidin-coated donor beads and anti-phosphortyrosine antibody PY100-coated acceptor beads. Upon phosphorylation, the peptide substrate can bind to both donor and acceptor beads giving rise to an increase in fluorescence. Compounds, ATP, biotinylated poly(Glu, Tyr) and kinases are mixed in a volume of 20 uL for 1 hr at ambient temperature using Greiner 384-well white clear bottom medium binding plates. Following incubation a 10 uL solution containing […] AlphaScreen beads, 75 mM Hepes, pH 7.4, 300 mM NaCl, 120 mM EDTA, 0.3% BSA and 0.03% Tween-20 is added to each well. After 2-16 hr incubation of the beads, plates are read in a Perkin Elmer AlphaQuest reader. The IC50 values correlates well with those of radiometric assays.
Background: Alpha assays give light when donor and acceptor beads are brought close together.

The structures appear in SMILES notation.

The term IC50 denotes the concentration that inhibits the measured activity by half.

With `NC(=O)c1nc(-c2cccc3ccccc23)cnc1N` [Example 2, 3-Amino-6-naphthalen-1-ylpyrazine-2-carboxamide], the IC50 is less than 50 nM.

The values above are taken from patent US7704995B2 (Exelixis, Inc., priority 2003, dated 2010).
